Measurements from paper PMC6025622, “A Novel Atypical PKC-Iota Inhibitor, Echinochrome A, Enhances Cardiomyocyte Differentiation from Mouse Embryonic Stem Cells” (Marine Drugs, 2018).

Biological target: T1, atypical protein kinase C-iota (PKCι) (Homo sapiens, UniProt P41743)
T1 construct: gene PRKCI; full-length protein
T1 sequence (P41743 2-596): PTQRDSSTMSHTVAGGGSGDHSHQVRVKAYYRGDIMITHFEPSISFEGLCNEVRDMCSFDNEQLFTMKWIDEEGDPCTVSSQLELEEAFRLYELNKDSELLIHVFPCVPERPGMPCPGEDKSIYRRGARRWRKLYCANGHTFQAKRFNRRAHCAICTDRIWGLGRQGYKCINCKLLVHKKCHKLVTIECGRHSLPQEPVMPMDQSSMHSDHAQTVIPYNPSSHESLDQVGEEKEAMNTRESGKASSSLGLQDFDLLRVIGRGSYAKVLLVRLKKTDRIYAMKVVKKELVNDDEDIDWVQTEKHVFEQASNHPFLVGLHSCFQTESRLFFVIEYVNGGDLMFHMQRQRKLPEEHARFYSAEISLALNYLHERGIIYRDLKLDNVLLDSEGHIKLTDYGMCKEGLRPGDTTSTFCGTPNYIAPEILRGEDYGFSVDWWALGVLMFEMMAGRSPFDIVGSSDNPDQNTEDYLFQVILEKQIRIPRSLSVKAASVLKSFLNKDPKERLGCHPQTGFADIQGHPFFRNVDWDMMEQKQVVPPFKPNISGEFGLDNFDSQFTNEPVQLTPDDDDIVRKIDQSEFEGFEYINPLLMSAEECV
Experiment: surface plasmon resonance, PKCι immobilized by amine coupling; also cell-free kinase assay IC50 […]
Type: binding

- Kd: 6.3 nM
SMILES: CCc1c(O)c(O)c2c(c1O)C(=O)C(O)=C(O)C2=O [Ech A, 6-ethyl-2,3,5,7,8-pentahydroxy-1,4-naphthoquinone]
